Where no end group is shown, it is not given here.
What was measured:
RBL-2H3 [1] = assay: Intracellular calcium increasing activity in RBL2H3 (FLIPR); format: cell-based; design: unit not given here
Protocol: (§1) RBL-2H3 (hereinafter RBL2H3) was incubated in α-MEM (Invitrogen) supplemented with 10% fetal calf serum. Vector plasmid pcDNA3.1 for animal cell expression, in which the nucleotide sequence containing the initiation codon to the termination codon of human TGR12 (DNA having the nucleotide sequence represented by SEQ ID NO: 32) was incorporated, was stably expressed in RBL-2H3 to establish human TGR12-expressed RBL-2H3 cell line (hereinafter RBL2H3-TGR12). RBL2H3-TGR12 was incubated in α-MEM (Invitrogen) supplemented with 10% fetal calf serum and 200 μg/mL of Geneticin.
The intracellular calcium increasing activity was assayed as follows. RBL2H3 and RBL2H3-TGR12 were plated in a 96-well plate at a density of 40,000 cells/well and incubated overnight. The medium was then discarded and 100 μL/well of 4 μM Fluo3-AM (Dojin Kagaku)-containing assay buffer [Hank's Balanced Salt Solution (Invitrogen), 20 mM HEPES (Dojin Kagaku) and 2.5 mM Probenecid (Sigma)] was added. The mixture was allowed to stand for an hour at 37° C. Various TGR12 (Peptide Institute, Inc.) or calcium ionophore A23187 (Wako Pure Chemical) was diluted in 0.05% CHAPS-containing assay buffer. After the cells were washed with the assay buffer, fluorescence emitted with changes in intracellular calcium was measured using FLIPR (Molecular Device). A sample, 50 μL, was added at a rate of 50 μL/sec. 10 seconds after initiation of the assay. Fluorescence was measured every 1 second during the first 60 seconds and every 6 seconds during the next 120 seconds. The highest fluorescence intensity during 3 minutes was made the maximum activity under the stimulation conditions, which was taken as an average of 3 wells. The EC50 values were calculated using Graphpad PRISM 4 (Graphpad Software).

[2] = test system: human mast cell line LAD 2; assay: Expression of TNF-α, CCL-2 or CCL-5 mRNA in LAD 2 (TaqMan PCR); format: cell-based; conditions: 1 μM
Protocol: Human mast cell line LAD 2 was cultured in StemPro-34 medium (Invitrogen) supplemented with 100 ng/mL of stem cell factor (Immuno-Biological Laboratories Co., Ltd.). […] A 750 μL aliquot was inoculated on a 24-well plate, which was then allowed to stand in a CO2 incubator at 37° C. for 30 minutes. […] The assay was performed for the respective reaction conditions in n=3. The plate was ice-chilled 0.5, 2, 8 and 24 hours after to stop the activation of LAD 2. After centrifugation at 300×g for 5 minutes, total RNA was extracted from the precipitated cells using RNeasy Mini Kit (Qiagen) according to the protocol attached. Further in the experiments where expression levels upon stimulation by various TGR12 ligands were analyzed, LAD 2 was centrifuged at 300×g for 5 minutes and the cells precipitated were counted and suspended in the medium at 1.33×10^6 cells/mL. A 750 μL aliquot was inoculated on a 24-well plate, which was allowed to stand in a CO2 incubator at 37° C. for 30 minutes. […] The assay was performed for the respective reaction conditions in n=3. Two hours after, the plate was ice-chilled to stop the activation of LAD 2. After centrifugation at 300×g for 5 minutes, total RNA was extracted from the precipitated cells using RNeasy Mini Kit (Qiagen) according to the protocol attached. The total RNA obtained as described above was concentrated using ethachinmate according to the protocol attached and dissolved in RNase-free H2O, Next, using the solution corresponding to […] of total RNA, reverse transcription was performed by the following procedure using SuperScript II reverse transcriptase (Invitrogen) to synthesize single stranded cDNA. To the total RNA solution, 0.1 μg of random primer (Invitrogen) and 1 μL of 10 mM dNTP (Invitrogen) were added and then RNase-free H2O was added to make the whole volume 12 μL. The mixture was then incubated at 70° C. for 10 minutes and ice-cooled for a minute. After 4 μL of 5× First-Strand Buffer (attached to SuperScript II reverse transcriptase), 2 μL of 0.1M DTT (attached to SuperScript II reverse transcriptase), 1 μL of RNaseOUT (Invitrogen) and 1 μL of SuperScript II reverse transcriptase were added, the mixture was incubated at 42° C. for 50 minutes, then at 70° C. for 15 minutes and ice-cooled for 5 minutes. The thus obtained cDNA was purified using ethachinmate in accordance with the protocol attached and dissolved in Tris-EDTA buffer (Fluka).
In TaqMan PCR below, hTNFalpha-tF (SEQ ID NO: 33) and hTNFalpha-tR (SEQ ID NO: 34) were used as primers for human TNF-α quantification, hTNFalpha-tP (SEQ ID NO: 35) as a probe and hTNFalpha-standard (SEQ ID NO: 36) as a standard. For human CCL-5 quantification, hCCL5-tF (SEQ ID NO: 37) and hCCL5-tR (SEQ ID NO: 38) were used as primers, hCCL5-tP (SEQ ID NO: 39) as a probe and hCCL5 standard (SEQ ID NO: 40) as a standard. For human CCL-2 quantification, hCCL2-tF (SEQ ID NO: 41) and hCCL2-tR (SEQ ID NO: 42) were used as primers, hCCL2-tP (SEQ ID NO: 43) as a probe and hCCL2 standard (SEQ ID NO: 44) as a standard.
TaqMan PCR was performed in n=2 for each sample in a liquid volume of 15 μl using 12.5 ng of total RNA as a template. The reaction solution was composed of 900 nM primer, 250 nM probe and ½ volume of TaqMan Universal PCR Master Mix (Applied Biosystems). The reaction and analysis were performed by ABI PRISM 7900HT Sequence Detection System (Applied Biosystems). After keeping warm at 50° C. for 2 minutes and then at 95° C. for 10 minutes, the reaction cycle was set in one cycle to include 95° C. for 15 seconds and 60° C. for 1 minute and repeating the cycle 40 times.

RBL-2H3 [3] = assay: Degranulation promoting effect in RBL2H3 (β-hexosaminidase release); format: cell-based
Protocol: as §1
The degranulation promoting effect was determined as follows. RBL2H3 and RBL2H3-TGR12 were plated into a 96-well plate at a density of 40,000 cells/well and incubated overnight. Afterward the medium was discarded. […] The β-hexosaminidase activity in the supernatant for the degranulation assay was measured as follows to determine the degree of degranulation. The supernatant was dispensed into a 96-well plate and a 5-fold volume of 0.1M citrate (pH 4.5)/1 mM 4-methyl umbelliferyl-2-acetamido-2-deoxy-beta-D-glucopyranoside (Wako Pure Chemical) based on the volume of the supernatant was added thereto, followed by incubation at 37° C. for an hour. Subsequently, a 0.1-fold volume of 0.2 M glycine/NaCO3 (pH 10.7) based on the volume of the reaction solution was added to stop the reaction and the fluorescence was measured using Fusion-α (Perkin Elmer). For the β-hexosaminidase activity, the activity in the supernatant, which was obtained by likewise plating RBL2H3 and RBL2H3-TGR12GFP onto the plate, detaching the same with trypsin/EDTA, freeze-thawing 4 times and then centrifugation, was made the total β-hexosaminidase activity in LAD 2. The degree of degranulation was shown by a ratio of the β-hexosaminidase activity in the LAD 2 supernatant to the total β-hexosaminidase activity.

[4] = target: T1, TGR12-GFP (fused protein of human TGR12 and GFP, encoded by the DNA of SEQ ID NO: 45), stably expressed on … (human, UniProt Q96LB1 1-330); assay: competition with 200 pM [125I]-rCST14 (Y0) on CHO-TGR12GFP cells, Hill plot
T1 construct: also called TGR12-GFP expression CHO cell line; not shown: GFP (Wako Pure Chemical) fused after the C-terminus of TGR12
T1 sequence: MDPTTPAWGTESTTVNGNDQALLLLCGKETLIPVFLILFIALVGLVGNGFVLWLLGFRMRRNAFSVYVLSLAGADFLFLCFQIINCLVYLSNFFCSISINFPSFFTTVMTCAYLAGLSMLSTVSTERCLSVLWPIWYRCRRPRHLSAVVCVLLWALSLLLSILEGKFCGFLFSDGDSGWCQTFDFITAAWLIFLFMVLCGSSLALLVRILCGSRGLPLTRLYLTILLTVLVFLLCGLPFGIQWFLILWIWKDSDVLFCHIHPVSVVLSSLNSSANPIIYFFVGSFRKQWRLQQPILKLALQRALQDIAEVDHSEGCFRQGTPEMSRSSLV
Protocol: The binding assay using CHO-TGR12GFP was performed as follows. […] After incubation overnight, the cells were washed 3 times with ice-chilled assay buffer (MEM-α, 20 mM HEPES (pH 7.4), 0.05% BSA) and 250 μL of the assay buffer was added thereto. […] After washing 3 times with 500 μL of the assay buffer, the cells were lysed in 250 μL of 0.5N NaOH and the lysate was recovered for measurement of the radioactivity.
Based on the above, non-specific binding was estimated as the activity of 10 μM rat cortistatin-14 and the IC₅₀ value of each peptide was obtained from Hill plot analysis.

human TGR12 (untagged) = target: T2, human TGR12 (untagged) (human, UniProt Q96LB1 1-330); assay: cell-based or functional assay
T2 sequence: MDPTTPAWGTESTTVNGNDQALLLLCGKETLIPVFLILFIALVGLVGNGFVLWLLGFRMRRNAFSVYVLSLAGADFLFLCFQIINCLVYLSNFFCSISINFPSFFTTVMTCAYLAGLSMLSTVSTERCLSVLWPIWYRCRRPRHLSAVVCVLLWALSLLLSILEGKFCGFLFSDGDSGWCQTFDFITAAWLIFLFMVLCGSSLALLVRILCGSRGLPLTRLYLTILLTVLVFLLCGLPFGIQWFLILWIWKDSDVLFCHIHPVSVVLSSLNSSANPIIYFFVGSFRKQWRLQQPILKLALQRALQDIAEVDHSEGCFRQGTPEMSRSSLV

[5] = target: T3, TGR12-GFP (fused protein of human TGR12 and GFP, encoded by the DNA of SEQ ID NO: 31), stably expressed on … (human, UniProt Q96LB1 1-330); assay: cell-based or functional assay
T3 sequence: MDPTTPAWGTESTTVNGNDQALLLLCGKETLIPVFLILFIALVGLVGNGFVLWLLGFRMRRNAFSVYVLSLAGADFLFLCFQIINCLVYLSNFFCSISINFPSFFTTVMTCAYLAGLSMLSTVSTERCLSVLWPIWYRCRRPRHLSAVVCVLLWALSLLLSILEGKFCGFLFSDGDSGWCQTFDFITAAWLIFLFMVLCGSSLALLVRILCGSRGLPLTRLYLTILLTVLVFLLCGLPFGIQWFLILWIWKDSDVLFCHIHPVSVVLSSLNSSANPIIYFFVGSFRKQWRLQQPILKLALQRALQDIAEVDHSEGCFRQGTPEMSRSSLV

[6] = time course, 0.5 hours after the stimulation
[7] = time course, 2 hours after the stimulation
[8] = time course, 8 hours after the stimulation
[9] = time course, 24 hours after the stimulation
[10] = various TGR12 ligands experiment, two hours after stimulation

## CSCC[C@H](NC(=O)[C@H](CC(C)C)NC(=O)CNC(=O)[C@H](Cc1ccccc1)NC(=O)[C@H](Cc1ccccc1)NC(=O)[C@H](CCC(N)=O)NC(=O)[C@H](CCC(N)=O)NC(=O)[C@@H]1CCCN1C(=O)[C@H](CCCCN)NC(=O)[C@@H]1CCCN1C(=O)[C@@H](N)CCCNC(=N)N)C(N)=O [substance P]
RBL-2H3 [1]; RBL2H3, 1 nM
  maximum activity in the calcium increasing effect: 44
RBL-2H3 [1]; RBL2H3, 10 nM
  maximum activity in the calcium increasing effect: 51
RBL-2H3 [1]; RBL2H3, 100 nM
  maximum activity in the calcium increasing effect: 50
RBL-2H3 [1]; RBL2H3, 1 μM
  maximum activity in the calcium increasing effect: 95
RBL-2H3 [1]; RBL2H3, 10 μM
  maximum activity in the calcium increasing effect: 41
[2]; [6]
  expression level of CCL-5 in LAD 2: 38107 copies
  expression level of TNF-α in LAD 2: 56065 copies
[2]; [7]
  expression level of CCL-5 in LAD 2: 88872 copies
  expression level of TNF-α in LAD 2: 1346293 copies
[2]; [8]
  expression level of CCL-5 in LAD 2: 69921 copies
  expression level of TNF-α in LAD 2: 54313 copies
[2]; [9]
  expression level of CCL-5 in LAD 2: 53605 copies
  expression level of TNF-α in LAD 2: 4332 copies
[2]; [10]
  expression level of CCL-2 in LAD 2: 2694837 copies
  expression level of CCL-5 in LAD 2: 47117 copies
  expression level of TNF-α in LAD 2: 173462 copies
RBL-2H3 [3]; RBL2H3, 10 nM
  degranulation (β-hexosaminidase in supernatant to total): 8.8%
RBL-2H3 [3]; RBL2H3, 30 nM
  degranulation (β-hexosaminidase in supernatant to total): 8.9%
RBL-2H3 [3]; RBL2H3, 100 nM
  degranulation (β-hexosaminidase in supernatant to total): 8.9%
RBL-2H3 [3]; RBL2H3, 300 nM
  degranulation (β-hexosaminidase in supernatant to total): 8.5%
RBL-2H3 [3]; RBL2H3, 1 μM
  degranulation (β-hexosaminidase in supernatant to total): 8.4%
RBL-2H3 [3]; RBL2H3, 3 μM
  degranulation (β-hexosaminidase in supernatant to total): 7.9%

B1: human PACAP27 (pituitary adenylate cyclase activating polypeptide 27) (peptide, UniProt P18509 132-158, looked up)
peptide: HSDGIFTDSYSRYRKQMAVKKYLAAVL
modifications: not fully specified; ends and bridges not checked
notes: domain: PACAP-27
[4]
  IC50: 264 nM
Human TGR12 (untagged)
  EC50 in the degranulation on LAD 2: ~51 nM
  degranulation of LAD 2 (beta-hexosaminidase release, % of total) at 10 nM: 2.6%
  degranulation of LAD 2 (beta-hexosaminidase release, % of total) at 30 nM: 19.6%
  degranulation of LAD 2 (beta-hexosaminidase release, % of total) at 100 nM: 59.4%
  degranulation of LAD 2 (beta-hexosaminidase release, % of total) at 300 nM: 71.1%
  degranulation of LAD 2 (beta-hexosaminidase release, % of total) at 3 µM: 69.1%
  maximum activity in the calcium increasing effect (FLIPR), RBL2H3-TGR12, at 1 nM: 40 fluorescence intensity
  maximum activity in the calcium increasing effect (FLIPR), RBL2H3-TGR12, at 10 nM: 29 fluorescence intensity
  maximum activity in the calcium increasing effect (FLIPR), RBL2H3-TGR12, at 100 nM: 5300 fluorescence intensity
  maximum activity in the calcium increasing effect (FLIPR), RBL2H3-TGR12, at 1 µM: 11500 fluorescence intensity
  maximum activity in the calcium increasing effect (FLIPR), RBL2H3-TGR12, at 10 µM: 12700 fluorescence intensity
[5]
  EC50 in the calcium increasing effect on CHO-TGR12: ~93 nM
  maximum activity in the calcium increasing effect (FLIPR), CHO-TGR12, at 0.3 nM: 48 fluorescence intensity
  maximum activity in the calcium increasing effect (FLIPR), CHO-TGR12, at 3 nM: 58 fluorescence intensity
  maximum activity in the calcium increasing effect (FLIPR), CHO-TGR12, at 30 nM: 939 fluorescence intensity
  maximum activity in the calcium increasing effect (FLIPR), CHO-TGR12, at 300 nM: 23000 fluorescence intensity
  maximum activity in the calcium increasing effect (FLIPR), CHO-TGR12, at 3000 nM: 23700 fluorescence intensity

Reference: US20100068208A1, “Degranulation inhibitor” (priority 2005, published 2010)
